# *1 amine or outer side, *2 acyl side, *3 side chain or, on linkers, in order; H or OH if unused. Where a SMILES comes first, the peptide text is derived from it. Bridges are numbered along the chain shown (N, C = ends). [ ]: non-standard residue; d: D form. The star is where a group is joined. hPhe(3,5-F2-4-CF3) = N[C@@H](CCc1cc(F)c(C(F)(F)F)c(F)c1)C(=O)O; hPhe(3-Cl-4-CF3) = N[C@@H](CCc1ccc(C(F)(F)F)c(Cl)c1)C(=O)O; NPrPhe(4-CF3) = CCCN[C@@H](Cc1ccc(C(F)(F)F)cc1)C(=O)O; X26 = COCCCN([C@@H](Cc1ccc(C)cc1)C(=O)[*:2])[*:1]; NMeGly(cPent) = CN[C@H](C(=O)O)C1CCCC1; X13 = CCC[C@](C)(N[*:1])C(=O)[*:2]; NMeD = CN[C@@H](CC(=O)O)C(=O)O; NMeL = CN[C@@H](CC(C)C)C(=O)O; Morpholide = C1CN(*)CCO1; Ac5c = NC1(C(=O)O)CCCC1; Sar = CNCC(=O)O
# Legend:
# [1] = biological target: GDP-bound NRAS wild-type protein (Homo sapiens, UniProt P01111); experiment: Binding to NRAS by surface plasmon resonance (SPR), Single Cycle Kinetics; conditions: for NRAS/KRAS (ratio of KD value for NRAS to KD value for KRAS) / NRAS/KRAS (ratio of KD value with respect to NRAS to KD value with respect to KRAS): GDP-bound NRAS wild-type vs GDP-bound KRAS wild-type
# Chain of GDP-bound NRAS wild-type protein (P01111 whole entry): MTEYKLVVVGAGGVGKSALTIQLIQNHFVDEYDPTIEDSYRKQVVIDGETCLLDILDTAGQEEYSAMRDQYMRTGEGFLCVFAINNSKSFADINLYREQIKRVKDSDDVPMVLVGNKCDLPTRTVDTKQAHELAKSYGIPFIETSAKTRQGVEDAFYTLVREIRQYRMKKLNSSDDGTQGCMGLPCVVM
# [2] = biological target: GDP-bound HRAS wild-type protein (Homo sapiens, UniProt P01112); experiment: Binding to HRAS by surface plasmon resonance (SPR), Single Cycle Kinetics; conditions: for HRAS/KRAS (ratio of KD value for HRAS to KD value for KRAS) / HRAS/KRAS (ratio of KD value with respect to HRAS to KD value with respect to KRAS): GDP-bound HRAS wild-type vs GDP-bound KRAS wild-type
# Chain of GDP-bound HRAS wild-type protein (P01112 whole entry): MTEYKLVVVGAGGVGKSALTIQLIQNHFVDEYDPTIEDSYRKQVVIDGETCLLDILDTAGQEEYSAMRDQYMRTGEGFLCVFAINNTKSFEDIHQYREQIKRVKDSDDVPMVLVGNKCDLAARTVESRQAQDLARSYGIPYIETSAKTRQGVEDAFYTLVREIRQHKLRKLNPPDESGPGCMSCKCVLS
# [3] = KD ratio NRAS/KRAS, class symbols
# [4] = KD ratio HRAS/KRAS, class symbols
# [5] = KD ratio NRAS/KRAS, SPR, GDP-bound wild-type proteins
# [6] = KD ratio HRAS/KRAS, SPR, GDP-bound wild-type proteins
smiles,measurement,setting,value
"CCO[C@@H]1C[C@H]2C(=O)NC3(CC(C)(C)C3)C(=O)N(C)[C@@H](C3CCCC3)C(=O)N(C)[C@H](C(=O)N3CCCC3)CC(=O)N(C)[C@H]3CCC/C=C/c4ccc(cc4)C[C@@H](C(=O)N(C)CC(=O)N[C@@H](CCc4cc(F)c(C(F)(F)F)c(F)c4)C(=O)N2C1)N1CC/C=C\C[C@@H](C1=O)N(C)C(=O)CN(C)C(=O)[C@H]([C@@H](C)CC)NC3=O [PP2574, (1S,7S,11R,13S,19S,22S,26S,29S,35S,37Z,47E)-19-cyclopentyl-7-[2-[3,5-difluoro-4-(trifluoromethyl)phenyl]ethyl]-11-ethoxy-3,3′,3′,18,21,25,31,34-octamethyl-29-[(1S)-1-methylpropyl]-22-(pyrrolidine-1-carbonyl)spiro[3,6,9,15,18,21,25,28,31,34,41-undecazapentacyclo[24.15.10.2^43,46.1^35,41.0^9,13]tetrapentaconta-37,43(53),44,46(52),47-pentaene-16,1′-cyclobutane]-2,5,8,14,17,20,24,27,30,33,54-undecone]",NRAS/KRAS (ratio of KD value with respect to GDP-bound NRAS wild-type protein to KD value with respect to KRAS),[1]; [3],A (a compound having 10 or more and less than 20 is denoted as A)
same,HRAS/KRAS (ratio of KD value with respect to GDP-bound HRAS wild-type protein to KD value with respect to KRAS),[2]; [4],A (a compound having 10 or more and less than 20 is denoted as A)
CCO[C@@H]1C[C@H]2C(=O)NC3(CC(C)(C)C3)C(=O)N(C)[C@@H](C(CC)CC)C(=O)N(C)[C@H](C(=O)N(C)C)CC(=O)N(C)[C@H]3CCC/C=C/c4ccc(cc4)C[C@@H](C(=O)N(C)CC(=O)N[C@@H](CCc4cc(F)c(C(F)(F)F)c(F)c4)C(=O)N2C1)N1CC/C=C\C[C@@H](C1=O)N(C)C(=O)CN(C1CC1)C(=O)[C@H]([C@@H](C)CC)NC3=O [PP2955],NRAS/KRAS (ratio of KD value with respect to GDP-bound NRAS wild-type protein to KD value with respect to KRAS),[1]; [3],A (a compound having 10 or more and less than 20 is denoted as A)
same,HRAS/KRAS (ratio of KD value with respect to GDP-bound HRAS wild-type protein to KD value with respect to KRAS),[2]; [4],A (a compound having 10 or more and less than 20 is denoted as A)
CCO[C@@H]1C[C@H]2C(=O)N(C)C3(CCCC3)C(=O)N(C)[C@@H](C3CCCC3)C(=O)N(C)[C@H](C(=O)N(C)C)CC(=O)N(C)[C@@H](CC)C(=O)N[C@@H]([C@@H](C)CC)C(=O)N(C)CC(=O)N(C)[C@H]3C/C=C\CCN(C3=O)[C@@H](Cc3ccc(C)cc3)C(=O)N(C)CC(=O)N[C@@H](CCc3cc(F)c(C(F)(F)F)c(F)c3)C(=O)N2C1 [PP1806],NRAS/KRAS (ratio of KD value for NRAS to KD value for KRAS),[1]; SPR,A (a compound having 10 or more and less than 20 is denoted as A)
same,HRAS/KRAS (ratio of KD value for HRAS to KD value for KRAS),[2]; SPR,B (a compound having 3 or more and less than 10 is denoted as B)
"CCCN1C(=O)CN(C)C(=O)CN(C)C(=O)[C@H]([C@@H](C)CC)NC(=O)[C@H](CC(C)C)N(C)C(=O)C[C@@H](C(=O)N2CCOCC2)N(C)C(=O)[C@H](C2CCCC2)N(C)C(=O)[C@](C)(CCC)NC(=O)[C@@H]2CCCN2C(=O)[C@H](CCc2cc(F)c(C(F)(F)F)c(F)c2)NC(=O)CN(C)C(=O)[C@@H]1Cc1ccc(C(F)(F)F)cc1 [PP0758] ([NMeL]I[Sar][Sar][NPrPhe(4-CF3)][Sar][hPhe(3,5-F2-4-CF3)]P[X13][NMeGly(cPent)][NMeD]-Morpholide; lactam N-11)",NRAS/KRAS (ratio of KD value with respect to GDP-bound NRAS wild-type protein to KD value with respect to KRAS),"[1]; KD ratio NRAS/KRAS, SPR",B (a compound having 3 or more and less than 10 is denoted as B)
same,HRAS/KRAS (ratio of KD value with respect to GDP-bound HRAS wild-type protein to KD value with respect to KRAS),"[2]; KD ratio HRAS/KRAS, SPR",C (A compound having a KD ratio of 0.1 or more and less than 3 is denoted as C)
CCOC[C@H]1C(=O)N[C@@H]([C@@H](C)CC)C(=O)N(C)CC(=O)N(C)[C@H]2C/C=C\CCN(C2=O)[C@@H](CC2CCCCC2)C(=O)N(C)CC(=O)N[C@@H](CCc2ccc(C(F)(F)F)c(Cl)c2)C(=O)N2C[C@H](OCC)C[C@H]2C(=O)NC2(CC(C)(C)C2)C(=O)N(C)[C@@H](C(CC)CC)C(=O)N(C)[C@H](C(=O)N(C)C)CC(=O)N1C [PP2488],NRAS/KRAS (ratio of KD value with respect to NRAS to KD value with respect to KRAS),[1]; SPR,A (a compound having 10 or more and less than 20 is denoted as A)
same,HRAS/KRAS (ratio of KD value with respect to HRAS to KD value with respect to KRAS),[2]; SPR,A (a compound having 10 or more and less than 20 is denoted as A)
CC[C@H](C)[C@@H]1NC(=O)[C@H](CC(C)C)N(C)C(=O)C[C@@H](C(=O)N2CCOCC2)N(C)C(=O)[C@H](C2CCCC2)N(C)C(=O)C2(CCCC2)NC(=O)[C@@H]2CCCN2C(=O)[C@H](CCc2cc(F)c(C(F)(F)F)c(F)c2)NC(=O)CN(C)C(=O)[C@H](Cc2ccc(C(F)(F)F)cc2)N2CCCC[C@@H](C2=O)N(C)C(=O)[C@H](C)NC1=O [PP0543],NRAS/KRAS (ratio of KD value with respect to GDP-bound NRAS wild-type protein to KD value with respect to KRAS),"[1]; KD ratio NRAS/KRAS, SPR",B (a compound having 3 or more and less than 10 is denoted as B)
same,HRAS/KRAS (ratio of KD value with respect to GDP-bound HRAS wild-type protein to KD value with respect to KRAS),"[2]; KD ratio HRAS/KRAS, SPR",B (a compound having 3 or more and less than 10 is denoted as B)
"CCC[C@H]1C(=O)N[C@@H]([C@@H](C)CC)C(=O)N(C2CC2)CC(=O)N(C)[C@H]2C/C=C\CCN(C2=O)[C@@H](Cc2ccc(C)cc2)C(=O)N(C)CC(=O)N[C@@H](CCc2ccc(C(F)(F)F)c(OC)c2)C(=O)N2C[C@H](OCC)C[C@H]2C(=O)N(C)C2(CCC2)C(=O)N(C)[C@@H](C2CCCC2)C(=O)N(C)[C@H](C(=O)N(C)C)CC(=O)N1C [PP2328, (2S,8S,12R,14S,20S,23S,27S,30S,36S,38Z)-20-cyclopentyl-32-cyclopropyl-12-ethoxy-8-[2-[3-methoxy-4-(trifluoromethyl)phenyl]ethyl]-N,N,4,16,19,22,26,35-octamethyl-30-[(1S)-1-methylpropyl]-3,6,9,15,18,21,25,28,31,34,42-undecaoxo-27-propyl-2-(p-tolylmethyl)spiro[1,4,7,10,16,19,22,26,29,32,35-undecazatricyclo[34.5.1.0^10,14]dotetracont-38-ene-17,1′-cyclobutane]-23-carboxamide]",NRAS/KRAS (ratio of KD value with respect to NRAS to KD value with respect to KRAS),[1]; SPR,A (a compound having 10 or more and less than 20 is denoted as A)
same,HRAS/KRAS (ratio of KD value with respect to HRAS to KD value with respect to KRAS),[2]; SPR,A (a compound having 10 or more and less than 20 is denoted as A)
"CCO[C@@H]1C[C@H]2C(=O)NC3(CC(C)(C)C3)C(=O)N(C)[C@@H](C3CCCC3)C(=O)N(C)[C@H](C(=O)N3CCCC3)CC(=O)N(C)[C@H]3CCCCCc4ccc(cc4)C[C@@H](C(=O)N(C)CC(=O)N[C@@H](CCc4ccc(C(F)(F)F)c(OC)c4)C(=O)N2C1)N1CC/C=C\C[C@@H](C1=O)N(C)C(=O)CN(C)C(=O)[C@H]([C@@H](C)CC)NC3=O [PP3037, (1S,7S,11R,13S,19S,22S,26S,29S,35S,37Z)-19-cyclopentyl-11-ethoxy-7-[2-[3-methoxy-4-(trifluoromethyl)phenyl]ethyl]-3,3′,3′,18,21,25,31,34-octamethyl-29-[(1S)-1-methylpropyl]-22-(pyrrolidine-1-carbonyl)spiro[3,6,9,15,18,21,25,28,31,34,41-undecazapentacyclo[24.15.10.2^43,46.1^35,41.0^9,13]tetrapentaconta-37,43(53),44,46(52)-tetraene-16,1′-cyclobutane]-2,5,8,14,17,20,24,27,30,33,54-undecone]",NRAS/KRAS (ratio of KD value with respect to GDP-bound NRAS wild-type protein to KD value with respect to KRAS),[1]; [5],A (a compound having 10 or more and less than 20 is denoted as A)
same,HRAS/KRAS (ratio of KD value with respect to GDP-bound HRAS wild-type protein to KD value with respect to KRAS),[2]; [6],B (a compound having 3 or more and less than 10 is denoted as B)
CCC[C@H]1C(=O)N[C@@H]([C@@H](C)CC)C(=O)N(C)CC(=O)N(C)[C@H]2C/C=C\CCN(C2=O)[C@@H](Cc2ccc(C)cc2)C(=O)N(C)CC(=O)N[C@@H](CCc2ccc(C(F)(F)F)c(OC)c2)C(=O)N2CC3(CC3)C[C@H]2C(=O)NC2(CC(C)(C)C2)C(=O)N(C)[C@@H]([C@@H](C)CC)C(=O)N(C)[C@H](C(=O)N(C)C)CC(=O)N1C [PP3011],NRAS/KRAS (ratio of KD value with respect to GDP-bound NRAS wild-type protein to KD value with respect to KRAS),[1]; [5],A (a compound having 10 or more and less than 20 is denoted as A)
same,HRAS/KRAS (ratio of KD value with respect to GDP-bound HRAS wild-type protein to KD value with respect to KRAS),[2]; [6],B (a compound having 3 or more and less than 10 is denoted as B)
CCO[C@@H]1C[C@H]2C(=O)NC3(CCCC3)C(=O)N(C)[C@@H](C3CCCC3)C(=O)N(C)[C@H](C(=O)N(C)C)CC(=O)N(C)[C@@H](CC(C)C)C(=O)N[C@@H]([C@@H](C)CC)C(=O)N(C)CC(=O)N(C)[C@H]3C/C=C\CCN(C3=O)[C@@H](Cc3ccc(C(F)(F)F)cc3)C(=O)N(C)CC(=O)N[C@@H](CCc3cc(F)c(Cl)c(F)c3)C(=O)N2C1 [PP2269],NRAS/KRAS (ratio of KD value with respect to NRAS to KD value with respect to KRAS),[1]; SPR,A (a compound having 10 or more and less than 20 is denoted as A)
same,HRAS/KRAS (ratio of KD value with respect to HRAS to KD value with respect to KRAS),[2]; SPR,A (a compound having 10 or more and less than 20 is denoted as A)
CC[C@H](C)[C@@H]1NC(=O)[C@H](CC)N(C)C(=O)C[C@@H](C(=O)N(C)C)N(C)C(=O)[C@H](C2CCCC2)N(C)C(=O)C2(CCCC2)N(C)C(=O)[C@@H]2CCCN2C(=O)[C@H](CCc2cc(F)c(C(F)(F)F)c(F)c2)NC(=O)CN(C)C(=O)[C@H](Cc2ccc(C)cc2)N2CC/C=C\C[C@@H](C2=O)N(C)C(=O)[C@@H]2CCCN2C1=O [PP1811],NRAS/KRAS (ratio of KD value for NRAS to KD value for KRAS),[1]; SPR,A (a compound having 10 or more and less than 20 is denoted as A)
same,HRAS/KRAS (ratio of KD value for HRAS to KD value for KRAS),[2]; SPR,B (a compound having 3 or more and less than 10 is denoted as B)
CC[C@H](C)[C@@H]1NC(=O)[C@H](CC(C)C)N(C)C(=O)C[C@@H](C(=O)N2CCOCC2)N(C)C(=O)[C@H](C2CCCC2)N(C)C(=O)C2(CCCC2)NC(=O)[C@@H]2CCCN2C(=O)[C@H](CCc2ccc(C(F)(F)F)c(Cl)c2)NC(=O)CN(C)C(=O)[C@H](Cc2ccc(C)cc2)N(CCCOC)C(=O)CN(C)C(=O)CN(C)C1=O [PP0105] ([NMeL]I[Sar][Sar][X26][Sar][hPhe(3-Cl-4-CF3)]P[Ac5c][NMeGly(cPent)][NMeD]-Morpholide; lactam N-11),NRAS/KRAS (ratio of KD for GDP-bound NRAS wild-type to KD for KRAS),"[1]; KD ratio NRAS/KRAS, SPR",B (a compound having 3 or more and less than 10 is denoted as B)
same,HRAS/KRAS (ratio of KD for GDP-bound HRAS wild-type to KD for KRAS),"[2]; KD ratio HRAS/KRAS, SPR",C (A compound having a KD ratio of 0.1 or more and less than 3 is denoted as C)
